Among the test systems are 786-0 renal; BT-549 breast; HOP-92 NSCLC; MDA-MB-435; NCI-H460 lung; SF-268 CNS; SK-MEL-28 melanoma; SN12C renal; SW-620 colon; TK-10 renal.
Assay in all cases: DTP human tumour cell line panel, 48 h

Our source for the GI50 and TGI values is PubChem BioAssay (NCI).

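96-well plates; 48 h exposure; 5 concentrations. Endpoints by linear interpolation between flanking doses. Not reached: highest tested concentration assigned. Abbreviation: GI50, concentration required for 50% inhibition of growth. TGI: concentration producing complete growth inhibition.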

Regarding `C=C1C(=O)O[C@H]2[C@H]1CC/C(C=Nc1ccc(C(F)(F)F)cc1N)=C\CC[C@@]1(C)O[C@@H]21`, the GI50 was 5.86 µM in the assay on 786-0 renal; 7.04 µM in the assay with BT-549 breast; 15.4 µM with HOP-92 NSCLC; 4.74 µM in the assay with MDA-MB-435; 7.07 µM in the assay with NCI-H460 lung; 7.6 µM with SF-268 CNS. The GI50 with SK-MEL-28 melanoma was 5.85 µM; with SN12C renal it was 10.1 µM; in the assay on SW-620 colon, 3.67 µM; with TK-10 renal it was 6.14 µM. For the same compound, the concentration for total growth inhibition (TGI) in the assay on 786-0 renal amounted to 18.5 µM; in the assay with BT-549 breast it was 20.2 µM; with HOP-92 NSCLC, 29.7 µM; in the assay on MDA-MB-435 it was 17.2 µM; with NCI-H460 lung, 22.7 µM; in the assay on SF-268 CNS, 21.1 µM. The TGI in the assay with SK-MEL-28 melanoma stood at 20.2 µM; in the assay on SN12C renal it was 26.6 µM; in the assay on SW-620 colon it was 13.2 µM; in the assay with TK-10 renal it was 17.4 µM.

Consider `COc1ccc2c(CC(=O)O)cc(=O)oc2c1`, for which the TGI with 786-0 renal, in the assay with BT-549 breast, with HOP-92 NSCLC, in the assay on MDA-MB-435, with NCI-H460 lung and in the assay on SF-268 CNS was > 100 µM in each case. Also, the TGI in the assay on SK-MEL-28 melanoma, in the assay with SN12C renal, in the assay with SW-620 colon and in the assay with TK-10 renal was > 100 µM in each case.

Consider `CN(CCCCCl)P(=O)(OCc1ccc([N+](=O)[O-])o1)C(F)(F)c1ccc(CC(=O)N[C@@H](CC(=O)O)C(=O)N[C@@H](Cc2ccc(C(F)(F)P(=O)(OCc3ccc([N+](=O)[O-])o3)N(C)CCCCCl)cc2)C(N)=O)cc1` (stereo not given in full), for which the GI50 in the assay with 786-0 renal is > 100 µM; with BT-549 breast, 18.8 µM; in the assay on HOP-92 NSCLC, 22.5 µM; with MDA-MB-435, 49.1 µM; with NCI-H460 lung, > 100 µM; in the assay with SF-268 CNS, 42.9 µM. Besides, the GI50 was 42.4 µM with SK-MEL-28 melanoma, > 100 µM in the assay on SN12C renal, 81.9 µM with SW-620 colon and 76.1 µM with TK-10 renal. For the same compound, the TGI is > 100 µM in the assay with 786-0 renal; 44.4 µM in the assay on BT-549 breast; 52.3 µM with HOP-92 NSCLC; > 100 µM in the assay on MDA-MB-435; > 100 µM in the assay on NCI-H460 lung; > 100 µM in the assay with SF-268 CNS. The TGI with SK-MEL-28 melanoma, with SN12C renal, in the assay on SW-620 colon and with TK-10 renal was > 100 µM in each case.

For `Cc1cc(Cl)ccc1NC(=O)/C(Cl)=C(/Cl)C(=O)O`, the TGI was 51.7 µM in the assay on 786-0 renal; 41.7 µM in the assay with BT-549 breast; 54.5 µM with HOP-92 NSCLC; 45.9 µM in the assay with MDA-MB-435; > 100 µM in the assay with NCI-H460 lung; > 100 µM in the assay with SF-268 CNS. Moreover, the TGI in the assay on SK-MEL-28 melanoma came out at 41 µM; in the assay on SN12C renal, 35 µM; in the assay with SW-620 colon, 48.9 µM; in the assay with TK-10 renal it was 33.2 µM.

`O=C(Nc1ccc(Cl)c(Cl)c1)C(=O)C(C1OC(=O)c2ccccc21)[N+](=O)[O-]` (stereo not given): the TGI with 786-0 renal, with BT-549 breast, in the assay with HOP-92 NSCLC, in the assay on MDA-MB-435, in the assay on NCI-H460 lung and in the assay with SF-268 CNS was > 100 µM in each case. Besides, the TGI with SK-MEL-28 melanoma, with SN12C renal, in the assay with SW-620 colon and in the assay with TK-10 renal was > 100 µM in each case.

Take `CCOCCc1c(O)nc(SC)[nH]c1=O`: the GI50 with 786-0 renal, in the assay on BT-549 breast, in the assay on HOP-92 NSCLC, in the assay with MDA-MB-435, in the assay on NCI-H460 lung and in the assay on SF-268 CNS was > 100 µM throughout. Also, the GI50 in the assay with SK-MEL-28 melanoma, in the assay on SN12C renal, in the assay on SW-620 colon and in the assay on TK-10 renal was > 100 µM in each case. The TGI in the assay on 786-0 renal, in the assay with BT-549 breast, in the assay with HOP-92 NSCLC, with MDA-MB-435, in the assay on NCI-H460 lung and in the assay on SF-268 CNS was > 100 µM throughout. In addition, the TGI in the assay on SK-MEL-28 melanoma, in the assay with SN12C renal, in the assay on SW-620 colon and with TK-10 renal was > 100 µM each time.

Turning to `Cc1ccc(Cl)cc1Nc1nc(C(F)(F)F)ccc1C(=O)N/N=C/c1c(Cl)cccc1Cl`, the GI50 was 0.588 µM in the assay on 786-0 renal; 1.62 µM with BT-549 breast; 1.14 µM in the assay with HOP-92 NSCLC; 2.15 µM with MDA-MB-435; 0.578 µM in the assay on NCI-H460 lung; 0.623 µM in the assay with SF-268 CNS. Further, the GI50 with SK-MEL-28 melanoma was 1.84 µM; with SN12C renal, 1.2 µM; in the assay with SW-620 colon it was 0.475 µM; in the assay on TK-10 renal, 1.4 µM. For the same compound, the TGI in the assay with 786-0 renal is 1.38 µM; with BT-549 breast it was 7.09 µM; in the assay with HOP-92 NSCLC, 6.92 µM; in the assay on MDA-MB-435, 11.6 µM; with NCI-H460 lung, 4.81 µM; in the assay on SF-268 CNS, 13.4 µM. The TGI came out at 32.1 µM in the assay with SK-MEL-28 melanoma, 12.2 µM with SN12C renal, 12.2 µM in the assay on SW-620 colon and 7.39 µM in the assay with TK-10 renal.

Consider `O=C(/C=C/c1ccccn1)c1ccccc1O`, for which the GI50 in the assay with 786-0 renal was 1.75 µM; with BT-549 breast, 2.98 µM; with HOP-92 NSCLC, 2.1 µM; in the assay with MDA-MB-435, 1.69 µM; with NCI-H460 lung, 2.28 µM; in the assay with SF-268 CNS it was 2.53 µM. Moreover, the GI50 is 2.09 µM with SK-MEL-28 melanoma, 2.8 µM in the assay with SN12C renal, 1.92 µM in the assay on SW-620 colon and 2.28 µM with TK-10 renal. Moreover, the TGI with 786-0 renal was found to be 3.14 µM; in the assay with BT-549 breast it was 9.71 µM; in the assay on HOP-92 NSCLC it was 4.91 µM; with MDA-MB-435 it was 3.41 µM; with NCI-H460 lung it was 5.17 µM; in the assay with SF-268 CNS it was 7.02 µM. Also, the TGI amounted to 4.22 µM in the assay on SK-MEL-28 melanoma, 9.36 µM with SN12C renal, 4.02 µM in the assay on SW-620 colon and 4.95 µM in the assay with TK-10 renal.

For the compound `CC(C)(C)C(=O)OCOP(=O)(OCOC(=O)C(C)(C)C)C1CCCN(OC(=O)c2ccccc2)C1=O` (stereo not given), the GI50 in the assay on 786-0 renal was 0.61 µM; with BT-549 breast, 2.64 µM; in the assay with HOP-92 NSCLC it was 1.25 µM; in the assay on MDA-MB-435 it was 3 µM; with NCI-H460 lung it was 1.11 µM; in the assay on SF-268 CNS, 1.86 µM. The GI50 in the assay with SK-MEL-28 melanoma was 1.05 µM; with SN12C renal, 0.337 µM; in the assay on SW-620 colon it was 1.42 µM; in the assay on TK-10 renal, 2.16 µM. In addition, the TGI in the assay with 786-0 renal stood at 26.4 µM; with BT-549 breast, 17.9 µM; with HOP-92 NSCLC, 35.8 µM; in the assay on MDA-MB-435, 17.6 µM; in the assay on NCI-H460 lung it was 15.3 µM; with SF-268 CNS, 61.7 µM. The TGI worked out at 3.57 µM in the assay on SK-MEL-28 melanoma, 7.19 µM in the assay on SN12C renal, 24.4 µM in the assay with SW-620 colon and 23.2 µM in the assay on TK-10 renal.
